Assay results as given in patent publication US20100317621A1, “BETA-LACTAMASE INHIBITORS” (priority 2007, published 2010).
Structures can show the parent of a compound that is named as a salt.

Experiments:
Assay in all cases: biochemical
SHV-5 β-lactamase = biological target: T1, SHV-5 β-lactamase (Klebsiella pneumoniae, UniProt P0A3M1); assay type: biochemical, Escherichia coli; settings: crude enzyme extract, 10 min preincubation at 37° C., nitrocefin 100 μM, PBS pH 7.0; read-out: SHV-5 IC50 Range
T1 construct: The β-lactamases were extracted by four cycles of freezing and thawing followed by centrifugation; endogenous in cells; host or cells: Escherichia coli cells containing SHV-5 (crude freeze-thaw extract)
T1 sequence (P0A3M1 22-286): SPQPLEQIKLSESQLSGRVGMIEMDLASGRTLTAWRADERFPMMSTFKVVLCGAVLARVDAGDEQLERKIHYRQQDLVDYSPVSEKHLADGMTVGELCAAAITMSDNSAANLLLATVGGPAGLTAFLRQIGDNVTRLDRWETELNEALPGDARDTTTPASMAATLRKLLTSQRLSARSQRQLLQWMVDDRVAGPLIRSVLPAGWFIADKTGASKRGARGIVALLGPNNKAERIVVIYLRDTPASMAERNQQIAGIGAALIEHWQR
Experimental: (§1) Isolation of β-lactamases. Crude β-lactamase extracts were prepared from 20 ml overnight cultures with shaking. Escherichia coli cells containing SHV-5 or CTXM-15 and Enterobacter cloacae cells containing P99 were further diluted 10-fold and grown to mid-log phase (OD at 600 nm, 0.5-0.8) in Mueller-Hinton II (MH-II) broth at 37° C. The cells were pelleted at 5000 g, washed and resuspended in 2 mL PBS pH 7.0. The β-lactamases were extracted by four cycles of freezing and thawing followed by centrifugation. β-lactamase activity in the extracts was measured with the chromogenic cephalosporin nitrocefin. The amount of protein in each β-lactamase preparation was determined by the bicinchoninic acid (BCA) assay.
(§2) β-lactamase Inhibition. To determine the level of inhibition of β-lactamase enzymes, compounds were diluted in PBS at pH 7.0 to yield concentrations between 100 and 0.005 μM in microtiter plates. An equal volume of diluted enzyme stock was added, and the plates were incubated at 37° C. for 10 min. Nitrocefin solution was then dispensed as substrate into each well at a final concentration of 100 μM, and the plates were immediately read with the kinetic program at 486 nm for 10 min on the SPECTRAMAX® Plus^384 (high-throughput microplate spectrophotometer; Molecular Devices Corp., Sunnyvale, Calif.). Maximum rates of metabolism were then compared to those in control wells (without inhibitors), and percentages of enzyme inhibition were calculated for each concentration of inhibitor. The concentration of inhibitor needed to reduce the initial rate of hydrolysis of substrate by 50% (IC50) was calculated as the residual activity of β-lactamase at 486 nm using the SoftMax Pro 5.0 software (Molecular Devices Corp.).

CTXM-15 β-lactamase = biological target: T2, CTXM-15 β-lactamase (Escherichia coli, UniProt Q9EXV5); assay type: biochemical; settings: crude enzyme extract, 10 min preincubation at 37° C., nitrocefin 100 μM, PBS pH 7.0; read-out: CTXM-15 IC50 Range
T2 construct: The β-lactamases were extracted by four cycles of freezing and thawing followed by centrifugation; endogenous in cells; host or cells: Escherichia coli cells containing CTXM-15 (crude freeze-thaw extract)
T2 sequence (Q9EXV5 29-291): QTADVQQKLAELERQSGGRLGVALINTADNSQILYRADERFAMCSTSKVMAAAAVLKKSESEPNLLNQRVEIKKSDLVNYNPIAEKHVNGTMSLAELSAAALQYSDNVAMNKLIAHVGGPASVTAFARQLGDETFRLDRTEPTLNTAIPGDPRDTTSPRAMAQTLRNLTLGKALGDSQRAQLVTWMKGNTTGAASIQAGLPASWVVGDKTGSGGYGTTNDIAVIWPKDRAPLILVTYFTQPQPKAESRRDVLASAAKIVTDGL
Experimental: as §1, §2

P99 AmpC β-lactamase = biological target: T3, P99 AmpC β-lactamase (Enterobacter cloacae, UniProt P05364); assay type: biochemical; settings: crude enzyme extract, 10 min preincubation at 37° C., nitrocefin 100 μM, PBS pH 7.0; read-out: P99 AmpC IC50 Range
T3 construct: The β-lactamases were extracted by four cycles of freezing and thawing followed by centrifugation; endogenous in cells; host or cells: Enterobacter cloacae cells containing P99 (crude freeze-thaw extract)
T3 sequence (P05364 21-381): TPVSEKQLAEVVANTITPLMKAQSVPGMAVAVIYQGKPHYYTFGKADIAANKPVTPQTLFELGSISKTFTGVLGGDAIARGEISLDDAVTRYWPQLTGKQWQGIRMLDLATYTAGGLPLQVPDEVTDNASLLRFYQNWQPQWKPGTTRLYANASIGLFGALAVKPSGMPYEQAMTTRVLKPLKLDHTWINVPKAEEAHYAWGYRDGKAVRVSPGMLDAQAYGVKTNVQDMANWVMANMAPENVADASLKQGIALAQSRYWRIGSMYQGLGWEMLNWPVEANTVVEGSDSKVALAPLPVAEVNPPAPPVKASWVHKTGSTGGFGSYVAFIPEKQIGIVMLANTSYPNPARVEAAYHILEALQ
Experimental: as §1, §2

Compound	IC50 (SHV-5 β-lactamase) [nM]	IC50 (CTXM-15 β-lactamase) [nM]	IC50 (P99 AmpC β-lactamase) [nM]
O=C(Cc1cccc(C(F)(F)F)c1)N[C@@H](Cc1cccc(C(=O)O)c1)B(O)O [Example 8, (1R)-1-(3-Trifluoromethylphenylacetylamino)-2-(3-carboxyphenyl)ethyl-1-boronic acid]	100 to 1000	100 to 1000	> 1000
O=C(Cc1ccccc1Cl)N[C@@H](Cc1cccc(C(=O)O)c1)B(O)O [Example 24, (1R)-1-(2-Chlorophenylacetylamino)-2-(3-carboxyphenyl)ethyl-1-boronic acid]	< 100	> 1000	100 to 1000
COc1ccc(CC(=O)N[C@@H](Cc2cccc(C(=O)O)c2)B(O)O)cc1 [Example 25, (1R)-1-(4-Methoxyphenylacetylamino)-2-(3-carboxyphenyl)ethyl-1-boronic acid]	< 100	< 100	100 to 1000
O=C(Cc1cccc(C(=O)O)c1)N[C@@H](Cc1cccc(C(=O)O)c1)B(O)O [Example 17, (1R)-1-(3-Carboxyphenylacetylamino)-2-(3-carboxyphenyl)ethyl-1-boronic acid]	100 to 1000	–	> 1000
O=C(Cc1ccccc1Br)N[C@@H](Cc1cccc(C(=O)O)c1)B(O)O [Example 20, (1R)-1-(2-Bromophenylacetylamino)-2-(3-carboxyphenyl)ethyl-1-boronic acid]	100 to 1000	–	100 to 1000
O=C(Cc1cccs1)N[C@@H](Cc1ccc(Cl)c(C(=O)O)c1)B(O)O [Example 18, (1R)-1-(2-thiophene-2-yl-acetylamino)-2-(3-carboxy-4-chlorophenyl)ethyl-1-boronic acid]	< 100	–	100 to 1000
CC(CO)Oc1cccc(CC(=O)N[C@@H](Cc2cccc(C(=O)O)c2)B(O)O)c1 (stereo partly drawn) [Example 32, (1R)-1-{2-[3-(2-Hydroxy-1-methyl-ethoxy)-phenyl]-acetylamino}-2-(3-carboxyphenyl)ethyl-1-boronic acid]	< 100	< 100	100 to 1000
NCCCOc1cccc(CC(=O)N[C@@H](Cc2cccc(C(=O)O)c2)B(O)O)c1 [Example 31, (1R)-1-{2-[3-(3-Amino-propyloxy)-phenyl]-acetylamino}-2-(3-carboxyphenyl)ethyl-1-boronic acid hydrochloride]	100 to 1000	100 to 1000	100 to 1000
O=C(Cc1cccc2ccccc12)N[C@@H](Cc1cccc(C(=O)O)c1)B(O)O [Example 15, (1R)-1-(2-naphthalen-1-yl-acetylamino)-2-(3-carboxyphenyl)ethyl-1-boronic acid]	> 1000	–	> 1000
COc1ccc(OC)c(CC(=O)N[C@@H](Cc2cccc(C(=O)O)c2)B(O)O)c1 [Example 4, (1R)-1-(2,5-Dimethoxyphenylacetylamino)-2-(3-carboxyphenyl)ethyl-1-boronic acid]	> 1000	–	100 to 1000
O=C(Cc1cccc(Br)c1)N[C@@H](Cc1cccc(C(=O)O)c1)B(O)O [Example 7, (1R)-1-(3-Bromophenylacetylamino)-2-(3-carboxyphenyl)ethyl-1-boronic acid]	100 to 1000	–	100 to 1000
O=C(Cc1ccc(Br)cc1)N[C@@H](Cc1cccc(C(=O)O)c1)B(O)O [Example 16, (1R)-1-(4-Bromophenylacetylamino)-2-(3-carboxyphenyl)ethyl-1-boronic acid]	100 to 1000	–	> 1000
O=C(CC1CCCCC1)N[C@@H](Cc1cccc(C(=O)O)c1)B(O)O [Example 5, (1R)-1-(Cyclohexylacetylamino)-2-(3-carboxyphenyl)ethyl-1-boronic acid]	> 1000	–	> 1000
O=C(Cc1cc(F)ccc1F)N[C@@H](Cc1cccc(C(=O)O)c1)B(O)O [Example 6, (1R)-1-(2,5-Difluorophenylacetylamino)-2-(3-carboxyphenyl)ethyl-1-boronic acid]	< 100	–	100 to 1000
